The values that follow come from ChEMBL document CHEMBL3621074, “Exploration of the linkage elements of porcupine antagonists led to potent Wnt signaling pathway inhibitors” (Bioorg Med Chem, 2015).

The target of series [1] is T1, Protein-serine O-palmitoleoyltransferase porcupine (Homo sapiens, UniProt Q9H237).
T1 sequence (Q9H237 whole entry): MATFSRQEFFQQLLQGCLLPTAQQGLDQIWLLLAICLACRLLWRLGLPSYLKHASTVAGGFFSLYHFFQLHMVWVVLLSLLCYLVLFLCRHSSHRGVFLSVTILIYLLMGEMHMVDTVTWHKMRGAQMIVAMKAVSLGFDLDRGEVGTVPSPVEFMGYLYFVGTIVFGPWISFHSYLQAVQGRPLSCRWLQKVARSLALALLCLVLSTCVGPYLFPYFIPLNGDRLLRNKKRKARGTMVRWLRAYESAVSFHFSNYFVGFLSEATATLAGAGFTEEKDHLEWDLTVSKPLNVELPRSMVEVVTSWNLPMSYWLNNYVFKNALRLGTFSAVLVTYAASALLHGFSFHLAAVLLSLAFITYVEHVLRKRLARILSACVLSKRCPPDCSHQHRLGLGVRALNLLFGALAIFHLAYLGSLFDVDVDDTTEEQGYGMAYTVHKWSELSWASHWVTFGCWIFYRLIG
The series is described as follows: Inhibition of porcupine (unknown origin) expressed in mouse L Wnt3A cells co-cultured with TM3 cells harboring luciferase reporter gene assessed as reduction in Wnt ligand-driven LEF/TCF-dependent transcriptional activity. Type of series: cell-based. In general terms: In a reporter assay the amount or activity of a reporter protein is the signal.

Series [2] in a line: Intrinsic clearance in mouse liver microsomes at 1 uM incubated for 60 mins in presence of NADPH by LC-MS/MS method. Type of series: ADME. As to conditions: read-out: CLH.
Series [3] in a line: Stability of the compound in rat plasma assessed as drug remaining at 1 uM incubated for 8 hr by LC-MS/MS method. Type of series: ADME, cell-free. As to conditions: read-out: Stability.
The nature of series [4]: Stability of the compound in rat plasma assessed as drug remaining at 1 uM incubated for 1 hr by LC-MS/MS method. Conditions: read-out: Stability. It is filed as ADME, cell-free.
A short description of series [5]: Stability of the compound in rat plasma assessed as drug remaining at 1 uM incubated for 30 mins by LC-MS/MS method. Conditions: read-out: Stability. Type of series: ADME, cell-free.
Series [6] is described as follows: Chemical stability in simulated gastric fluid assessed as remaining compound level incubated for 0 hrs at 200 uM at 40 degC by HPLC method. It is filed as physicochemical. Conditions: read-out: Stability.
A short description of series [7]: Half life in human liver microsomes at 1 uM in presence of NADPH by LC-MS/MS method. It is filed as ADME. (In general: Liver microsomes are a subcellular fraction often used to study metabolism.)
A short description of series [8]: Half life in mouse liver microsomes at 1 uM in presence of NADPH by LC-MS/MS method. Type of series: ADME.
The next series concerns the target CYP2D6 (Homo sapiens, UniProt P10635). Kind of series: Inhibition of CYP2D6 in human liver microsomes at 10 uM pre-incubated for 10 mins before dextromethorphan substrate and NADPH addition by LC-MS/MS method. Type of series: ADME. As to conditions: probe dextromethorphan.
The next series concerns the target CYP3A4 (Homo sapiens, UniProt P08684). The series is described as follows: Inhibition of CYP3A4 in human liver microsomes at 10 uM pre-incubated for 10 mins before midazolam substrate and NADPH addition by LC-MS/MS method. Type of series: ADME. Conditions: probe midazolam.
A short description of series [9]: Chemical stability in simulated gastric fluid assessed as remaining compound level incubated for 8 hrs at 200 uM at 40 degC by HPLC method. It is filed as physicochemical. As to conditions: read-out: Stability.
The nature of series [10]: Intrinsic clearance in human liver microsomes at 1 uM incubated for 60 mins in presence of NADPH by LC-MS/MS method. It is filed as ADME. Conditions: read-out: CLH.
A short description of series [11]: Chemical stability in simulated gastric fluid assessed as remaining compound level incubated for 4 hrs at 200 uM at 40 degC by HPLC method. Type of series: physicochemical. Conditions: read-out: Stability.
Series [12] can be described thus: Effect on total intracellular Wnt3a levels in HEK293T cells transfected with pLinbin- Wnt3A plasmid at 0.1 uM incubated for 48 hrs by Western blotting method. Type of series: ADME, cell-based. Conditions: human, hek-293t. On the technique in general: Immunoblotting shows a protein as a band on a membrane.
The target of series [13] is T2, Protein-serine O-palmitoleoyltransferase porcupine (Homo sapiens) (UniProt Q9H237).
T2 sequence (whole entry): T1 sequence (Q9H237 whole entry)
Kind of series: Inhibition of porcupine (unknown origin) expressed in HEK293T cells transfected with pLinbin- Wnt3A plasmid assessed as inhibition of Wnt3A secretion at 0.1 uM incubated for 48 hrs by Western blotting method. Type of series: cell-based. Conditions: HEK-293T.

Series [14] deals with T2, Protein-serine O-palmitoleoyltransferase porcupine (Homo sapiens). Kind of series: Potency index, ratio of IC50 for LGK974 to IC50 for test compound for inhibition of porcupine (unknown origin) expressed in mouse L Wnt3A cells co-cultured with HEK293 STF cells by STF reporter gene based paracrine cellular reporter gene assay. Type of series: cell-based.

Calls of active or inactive are those of the source. The rule behind the calls is not given here.

Sequence of CYP2D6 (P10635 whole entry): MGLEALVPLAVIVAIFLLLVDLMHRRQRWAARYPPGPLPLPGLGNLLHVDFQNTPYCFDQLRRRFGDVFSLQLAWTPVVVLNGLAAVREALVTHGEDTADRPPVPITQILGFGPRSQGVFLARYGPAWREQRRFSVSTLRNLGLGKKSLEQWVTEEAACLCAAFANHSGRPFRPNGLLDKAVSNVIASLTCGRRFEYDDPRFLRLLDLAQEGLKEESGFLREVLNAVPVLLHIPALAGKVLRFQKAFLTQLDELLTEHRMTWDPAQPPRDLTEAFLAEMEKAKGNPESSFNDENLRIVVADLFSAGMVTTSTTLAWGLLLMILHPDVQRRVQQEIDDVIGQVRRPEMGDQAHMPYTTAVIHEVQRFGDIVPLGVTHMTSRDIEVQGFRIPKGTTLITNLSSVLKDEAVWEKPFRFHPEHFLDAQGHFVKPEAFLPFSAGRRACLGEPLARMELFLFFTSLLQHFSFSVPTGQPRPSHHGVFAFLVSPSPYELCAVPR
Sequence of CYP3A4 (P08684 whole entry): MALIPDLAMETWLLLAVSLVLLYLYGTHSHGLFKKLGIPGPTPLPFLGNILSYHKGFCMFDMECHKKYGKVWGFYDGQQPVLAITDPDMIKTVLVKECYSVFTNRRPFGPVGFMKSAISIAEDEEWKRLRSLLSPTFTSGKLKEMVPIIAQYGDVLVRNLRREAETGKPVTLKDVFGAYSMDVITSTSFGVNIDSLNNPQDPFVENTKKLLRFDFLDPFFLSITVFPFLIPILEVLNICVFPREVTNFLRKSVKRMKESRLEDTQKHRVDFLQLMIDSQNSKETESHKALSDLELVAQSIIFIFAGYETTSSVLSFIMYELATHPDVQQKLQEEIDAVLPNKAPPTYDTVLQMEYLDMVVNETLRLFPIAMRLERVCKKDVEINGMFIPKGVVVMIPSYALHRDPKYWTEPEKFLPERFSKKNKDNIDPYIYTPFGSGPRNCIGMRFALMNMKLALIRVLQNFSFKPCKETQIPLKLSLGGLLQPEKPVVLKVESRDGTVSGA

In general, IC50 refers to the concentration needed to halve the response being measured. Take `COc1ccc2cc(OCC(=O)Nc3ccc(-c4cnccn4)cn3)ccc2c1`: in series [1], the 50% inhibitory concentration (IC50) was > 1000 nM.
For `Cc1cc(-c2ccc(OC(=O)Nc3ccc(-c4cccnc4)cc3)cc2)ccn1`, the IC50 in series [1] was 2.2 nM.
What is called half-life is how long it takes for the measured level to halve. For orientation: inhibition means the share of the control response that was lost under treatment. Consider `Cc1cc(-c2ccc(SCC(=O)Nc3ccc(-c4cnccn4)cn3)cc2)ccn1`, for which the CLint scaled at 1 µM in [2] came out at 1790 mL/min/kg; in [10], 263 mL/min/kg. For the same molecule, the remaining at 8 h, 1 µM in series [3] amounted to 83%. For the same molecule, in series [4], the remaining at 1 h, 1 µM is 91%. Moreover, the remaining at 0.5 h, 1 µM in series [5] is 93%. The remaining at 0 h, 200 µM in series [6] was 98%. Also, the half-life at 1 µM in [7] came to 6.8 min; in series [8], 3.4 min. The IC50 in series [1] is 0.53 nM. Moreover, the inhibition at 10 µM was 45% against CYP2D6 and 60% on CYP3A4. Besides, the remaining at 8 h, 200 µM in series [9] is 83%. Also, the remaining at 4 h, 200 µM in series [11] is 89%.
Consider `Cc1cc(-c2ccc(CCC(=O)Nc3ccc(-c4cnccn4)cn3)cc2)ccn1`, for which the CLint scaled at 1 µM in series [2] amounted to 1260 mL/min/kg; in series [10], 84 mL/min/kg. The remaining at 8 h, 1 µM in series [3] amounted to 90%. Further, the remaining at 1 h, 1 µM in [4] amounted to 94%. Also, the remaining at 0.5 h, 1 µM in [5] turned out to be 98%. Also, in [6], the remaining at 0 h, 200 µM is 100%. Further, the half-life at 1 µM is 21 min in [7] and 4.8 min in series [8]. Moreover, in series [1], the IC50 is 0.19 nM. The inhibition at 10 µM against CYP2D6 stood at 47%; against CYP3A4, 45%. Besides, in series [9], the remaining at 8 h, 200 µM was 93%. In addition, the remaining at 4 h, 200 µM in [11] was 97%.
`CC(=O)N1CCc2ccc(OCC(=O)Nc3ccc(-c4cnccn4)cn3)cc2C1`: the IC50 in series [1] was determined as 24 nM.
In the case of `O=C(COc1ccc2[nH]ncc2c1)Nc1ccc(-c2cnccn2)cn1`, in series [1], the IC50 is > 1000 nM.
For `N#Cc1ccc2cc(OCC(=O)Nc3ccc(-c4cnccn4)cn3)ccc2c1`, the IC50 in series [1] was found to be 2.7 nM.
Turning to `Cc1cc(-c2ccc(NCC(=O)Nc3ccc(-c4cnccn4)cn3)cc2)ccn1`, the figures for the CLint scaled at 1 µM in series [2] and in series [10] were 440 mL/min/kg and 45 mL/min/kg, respectively. Further, the remaining at 8 h, 1 µM in [3] worked out at 98%. In addition, the remaining at 1 h, 1 µM in series [4] was determined as 100%. Also, in series [5], the remaining at 0.5 h, 1 µM amounted to 100%. In [6], the remaining at 0 h, 200 µM is 95%. Also, the Activity entry in [12] is recorded as “Non-toxic”. Further, the figures for the half-life at 1 µM in series [7] and in series [8] were 39 min and 14 min, respectively. The IC50 in [1] is 0.96 nM. The inhibition at 10 µM against CYP2D6 is 53%; against CYP3A4 it was 50%. The remaining at 8 h, 200 µM in [9] was 85%. Also, in [13], the inhibition result was “Active”. In addition, the remaining at 4 h, 200 µM in series [11] was 88%.
For the molecule `Cn1ncc2cc(OCC(=O)Nc3ccc(-c4cnccn4)cn3)ccc21`, the IC50 in [1] is > 1000 nM.
`Cn1ncc2cc(NCC(=O)Nc3ccc(-c4cnccn4)cn3)ccc21`: the IC50 in series [1] was > 1000 nM.
The same measure, in the same setting: then `Cc1cc(-c2cccc(OCC(=O)Nc3ccc(-c4cnccn4)cn3)c2)ccn1`, with 188 nM.
On the same count and under the same terms, next, `O=C(COc1ccc2ccccc2c1)Nc1ccc(-c2cnccn2)cn1`: > 1000 nM; `O=C(CNc1ccc2[nH]ncc2c1)Nc1ccc(-c2cnccn2)cn1`: > 1000 nM.
Still for that read-out and setting: next, `Cc1cc(-c2cccc(SCC(=O)Nc3ccc(-c4cnccn4)cn3)c2)ccn1`: 40 nM.
On to `Cc1cc(-c2ccc(OC(C)C(=O)Nc3ccc(-c4cnccn4)cn3)cc2)ccn1` (stereo not given), for which the CLint scaled at 1 µM in series [2] is 321 mL/min/kg; in series [10] it was 43 mL/min/kg. Moreover, the remaining at 8 h, 1 µM in series [3] stood at 100%. In addition, the remaining at 1 h, 1 µM in series [4] stood at 100%. For the same molecule, in series [5], the remaining at 0.5 h, 1 µM came out at 100%. For the same molecule, the remaining at 0 h, 200 µM in series [6] was 97%. The Activity entry in series [12] is reported as “Non-toxic”. In addition, the results for the half-life at 1 µM in [7] and in series [8] were 41 min and 19 min, respectively. Moreover, in [1], the IC50 amounted to 0.11 nM. Also, the inhibition at 10 µM was determined as 53% against CYP2D6 and 67% on CYP3A4. For the same molecule, in series [9], the remaining at 8 h, 200 µM was 71%. Besides, in series [13], the inhibition entry was “Active”. In addition, in series [14], the Ratio IC50 came to 5. Further, in series [11], the remaining at 4 h, 200 µM is 85%.
For `Cc1cc(-c2cccc(NCC(=O)Nc3ccc(-c4cnccn4)cn3)c2)ccn1`, the IC50 in series [1] turned out to be 164 nM.
Same read-out and setting: then `Cc1cc(-c2ccc(OC(=O)Nc3ccc(-c4ccccc4)cc3)cc2)ccn1`, with 5 nM; and `CC(=O)N1CCN(c2ccc(OCC(=O)Nc3ccc(-c4cnccn4)cn3)cc2)CC1`, with 483 nM; and `Nc1noc2ccc(OCC(=O)Nc3ccc(-c4cnccn4)cn3)cc12`, with > 1000 nM.
Still for that read-out and setting: then `Cc1cc(-c2ccc(N(C)CC(=O)Nc3ccc(-c4cnccn4)cn3)cc2)ccn1`, with 0.67 nM; and `O=C(COc1ccc2ccncc2c1)Nc1ccc(-c2cnccn2)cn1`, with 30 nM.
Turning to `Cc1cc(-c2ccc(OCC(=O)Nc3ccc(-c4cnccn4)cn3)cc2)ccn1`, the results for the CLint scaled at 1 µM in [2] and in series [10] were 1430 mL/min/kg and 135 mL/min/kg, respectively. Also, the remaining at 8 h, 1 µM in series [3] worked out at 84%. The remaining at 1 h, 1 µM in series [4] was determined as 90%. In [5], the remaining at 0.5 h, 1 µM was 97%. The remaining at 0 h, 200 µM in series [6] is 96%. Further, the Activity entry in series [12] is “Non-toxic”. Further, the half-life at 1 µM in series [7] is 13 min; in [8], 4.3 min. The IC50 in series [1] is 0.23 nM. Further, the inhibition at 10 µM was found to be 19% on CYP2D6 and 47% against CYP3A4. In [9], the remaining at 8 h, 200 µM is 67%. Also, the inhibition entry in series [13] is “Active”. Further, in series [11], the remaining at 4 h, 200 µM was 81%.
Take `N#Cc1ccc(OCC(=O)Nc2ccc(-c3cnccn3)cn2)cc1`: the IC50 in series [1] was found to be 485 nM.
